This is an account of results in US7405305B2 (Eli Lilly and Company, priority 2002, dated 2008).

Test [1] has as its system ZDF rats. Briefly: Glucose Lowering Assay. Type of test: in vivo, rat. The settings on record: oral gavage once daily, relative to insulin. On the procedure:
This test measures the effect of the test compound on blood glucose and triglycerides relative to insulin. (See Eldar-Finkleman, et al, Expression and Characterization of Glycogen Synthase Kinase-3 Mutants and Their Effect on Glycogen Synthase Activity in Intact Cells, Proc. Nat. Acad. Sci., 93, 10228-10233 (1996).)
ZDF rats (Charles River, Inc.) at six weeks of age are housed individually with free access to food and water. Rats are dosed with drug once daily by oral gavage, with the compound prepared as a suspension in 1% caboxymethylcellusolve/0.25% Tween 80 (CMC-Tween). Vehicle controls are dosed with CMC-Tween only. The duration of study varied according to the protocol used, with acute dosing studies lasting one day and dose escalation studies lasting seven days. Body weights and food consumption measurements are also performed once a week for seven-day studies. For measurement of blood glucose and triglycerides, blood samples of 600 μl are collected by the tail snip method. (The tail snip for blood sampling is as follows: 1-2 mm of the tail is snipped with a sharp blade. After collection of blood, a scab forms at the site of wound. This scab is removed and the tail is gently massaged for other subsequent bleedings.) Glucose and triglyceride determinations are performed on a Hitachi 912 metabolic analyzer, with a kit utilizing the Trinder method. […]

Test [2] deals with 3T3-L1 adipocytes. Briefly: Glycogen Synthesis Assay (14C-glucose incorporation into glycogen). It is filed as cell-based. The settings on record: 1 μM compound. The method, then:
This test measures the increase in the production of glycogen both in the absence and in the presence of insulin in the cells. This test is done according to standard protocols. (See Berger and Hayes, A High-Capacity assay for Activators of Glucose Incorporation into Glycogen in L6 Muscle Cells, Analytical Biochemistry, 261, 159-163 (1998).)
Briefly, 3T3-L1 adipocytes are plated and differentiated in a 96-well plate at 25,000 cells/well. The plate is serum-starved overnight. The serum-starvation media is removed just prior to assay, and the plate is washed with 100 μl/well Krebs-Ringer-Hepes buffer (KRBH). The KRBH is removed and 50 μl of compound (twice the amount of the final concentration) is added to the assay plate. Next, 50 μl of ^14C-labeled glucose is added to the assay plate at 0.1 μCi/well. The plate is then incubated at 37° C. for 2 hours.
The plate is washed with 100 μL/well of PBS, and the cells are lysed with 75 μl/well of 1N NaOH. The plate is heated at 70° C. for 20 minutes. An aliquot (50 μl) of the supernatant is transferred from the assay plate to a Millipore FC filter plate containing 120 μl/well of ice-cold ethanol. The plate is allowed to stand for 2 hours at 4° C. to facilitate precipitation. The ethanol is removed from the filter plate via a vacuum manifold, and the plate is washed with 100 μL/well of ice-cold 70% ethanol. The plate was allowed to dry overnight, and 75 μl/well of Microscint-20 was added to the filter plate. The plate was then counted on a Packard Topcount.

Test [3] has as its target recombinant human GSK-3β (Homo sapiens, UniProt P49841). As to the kind of experiment: Kinase Inhibition Assay (GSK-3β, 33P phosphoCREB peptide filter assay). Type of test: biochemical. The source says: An important in vitro test is the ability of the compound to inhibit the activity of the GSK-3β enzyme. This test is done according to a standard protocol. (See Fiol, et al, A Secondary Phosphorylation of CREB^341 at Ser^129 Is Required for the cAMP-Mediated Control of Gene Expression: A Role for Glycogen Synthase Kinase-3 in the Control of Gene Expression, J. Biol. Chem., 269, 32187-32193 (1994)).
The catalysis of the reaction:
(pS)YR+AT^33P→KRREIL(^33pS)RRP(pS)YR [measured]+ADP by GSK-3β is measured in a reaction mixture comprised of the following: 50 mM MOPS (4-morpholinepropanesulfonic acid) pH 7.0; 50 μM phosphoCREB peptide; 50 μM ATP; 0.5 μCi ATP[γ-^33P]; 12.5 mM MgCl2; 0.03% Triton-X; 4% DMSO; and 1 nM recombinant human GSK-3β. The reaction is initiated by the addition of enzyme. The final reaction volume is 100 μL. The reaction is allowed to proceed for 60 minutes at room temperature and is stopped by the addition of 75 μL of 10% phosphoric acid. To capture KRREIL(^33pS)RRP(pS)YR formed in the reaction and to remove unreacted AT^33P, 160 μL of the stopped reaction mixture is transferred to a pre-wetted (0.75% phosphoric acid) phosphocellulose microfiltration plate [Millipore Cat.# MAPH NOB 50] and after 90 minutes incubation on the plate, the stopped reaction mixture is passed through the filter using a Titertek Map Extractor. The filter containing the trapped KRREIL(^33pS)RRP(pS)YR is washed with 220 μL of 0.75% phosphoric acid. Filter plates are blotted to remove droplets from the underdrain. The underdrain is removed from the filter and the filter is placed into a clear plate liner (Wallac, Inc.). Added to each well is 100 μL of Microscint 20 (Packard).
After standing at least six hours (preferably overnight), the plates are counted in a Trilux scintillation counter (Wallac, Inc.). The ability of a compound to inhibit GSK-3β is determined by including various concentrations of the compound in the reaction mixture and comparing the signal produced to the signal produced in a reaction mixture without the compound.
The test yields the molar concentration of the test compound that produces a 50% inhibition of the GSK-3β enzyme activity.

Test [4] concerns β-catenin in AG04160C FAD lymphoblast cells. As to the kind of experiment: β-Catenin Protection Assay. Type of test: cell-based, human. Particulars: fold induction over basal β-catenin, 24 hours, concentration not given. On the procedure:
This test measures the fold induction over basal β-catenin and is performed according to standard protocols (Hedgepeth, C. M., Dev. Biol. 185, 82-91 (1997); Chen, G., et al., J. Neurochem., 72, 1327-1330 (1999); Hong, M., et al., J. Biol. Chem., 272, 25326-25332 (1997)).
The human familial Alzheimer's disease (FAD) presenilin-1 AG04160C lymphoblast cell line (Coriell Cell Repository, Camden, N.J.) is maintained as a suspension culture in RPMI 1640 (with L-Glutamine) supplemented with 10% fetal bovine serum and 1% penicillin-streptomycin in an atmosphere of 37° C. and 5% CO2. The AG04160C FAD lymphoblast cells are seeded in T-25 cm^2 flasks at 2.5 to 5.0×10^5 cells/ml in a total volume of 10 ml. Following 16-18 hours of growth, cells are treated with compound at concentrations of 0.1 μM, 1.0 μM, and 10 μM, and are incubated for an additional 24 hours. […] The total protein concentration in whole cell lysate samples is determined using the BCA method (Pierce). […] The β-catenin accumulation/stability is then quantified following densitometry analysis of protein bands. […]

Setting [5] is: Table II, 1 nM recombinant human GSK-3β, 50 μM ATP, 60 minutes at room temperature, read-out: GSK-3β IC50.

Where a name gives a salt, the structure may show the parent alone. Read-outs that look alike come from different tables or passages of the source.

Chain of recombinant human GSK-3β (P49841 whole entry): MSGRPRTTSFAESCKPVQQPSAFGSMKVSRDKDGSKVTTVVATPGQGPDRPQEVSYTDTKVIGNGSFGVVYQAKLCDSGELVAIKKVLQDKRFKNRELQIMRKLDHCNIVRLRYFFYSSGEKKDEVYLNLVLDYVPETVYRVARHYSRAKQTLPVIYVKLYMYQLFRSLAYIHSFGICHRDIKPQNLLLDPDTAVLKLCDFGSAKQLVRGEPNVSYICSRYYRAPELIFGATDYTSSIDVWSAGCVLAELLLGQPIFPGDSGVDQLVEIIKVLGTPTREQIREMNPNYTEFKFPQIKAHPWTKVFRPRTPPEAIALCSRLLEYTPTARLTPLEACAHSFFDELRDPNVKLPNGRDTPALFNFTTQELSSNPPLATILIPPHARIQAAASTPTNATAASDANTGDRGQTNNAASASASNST

For `CC(C)CN[C@H]1CC[C@H](n2cc(C3=C(c4cccc5ccoc45)C(=O)NC3=O)c3c(F)cccc32)CC1` [Example 150, 3-(Benzofur-7-yl)-4-[4-fluoro-1-(4-trans-isobutylaminocyclohexyl)-1H-indol-3-yl]pyrrole-2,5-dione hydrochloride], the “Glucose Lowering (percent increase vs. effect of insulin)” value in test [1] was 58%. Besides, in test [2], the “Glycogen Synthesis (fold increase at 1 μM) in absence of insulin” value was 2.97× in absence of fold and the “Glycogen Synthesis (fold increase at 1 μM) in presence of insulin” value is reported as 3.92× in presence of fold. In addition, in test [3] (setting [5]), the IC50 worked out at 0.0106 µM.

Take `COc1cc(C2=C(c3cn(CCN4CCN(C)CC4)c4ccccc34)C(=O)NC2=O)c2occc2c1` [Example 100, 3-(5-Methoxybenzofur-7-yl)-4-{1-[2-(4-methylpiperazin-1-yl)ethyl]-1H-indol-3-yl}pyrrole-2,5-dione]: in test [3], the IC50 stood at 0.143 µM.

With `Cl.Cn1cc(C2=C(c3cccc4ccoc34)C(=O)NC2=O)c2cc(OCCNCC3CC3)ccc21` [Example 119, 3-(Benzofur-7-yl)-4-{5-[2-(cyclopropylmethylamino)ethoxy]-1-methyl-1H-indol-3-yl}pyrrole-2,5-dione hydrochloride], the “β-Catenin (fold increase)” value in test [4] is reported as 4.9× fold. For the same molecule, in test [2], the “Glycogen Synthesis (fold increase at 1 μM) in absence of insulin” value is given as 2.82× in absence of fold and the “Glycogen Synthesis (fold increase at 1 μM) in presence of insulin” value was 2.13× in presence of fold. The concentration for half-maximal inhibition (IC50) in test [3] (setting [5]) is 0.0095 µM.

As to `Cn1ccc2c(C3=C(c4cn(CCCO)c5ccccc45)C(=O)NC3=O)cccc21` [Example 1, 3-(1-Methyl-1H-indol-4-yl)-4-[1-(3-hydroxypropyl)-1H-indol-3-yl]pyrrole-2,5-dione], the IC50 in test [3] (setting [5]) was 0.176 µM.

For the molecule `Cn1cc(C2=C(c3ccc(O)c4ccoc34)C(=O)NC2=O)c2ccccc21` [Example 135, 3-(4-Hydroxybenzofur-7-yl)-4-(1-methyl-1H-indol-3-yl)pyrrole-2,5-dione], the IC50 in test [3] (setting [5]) was found to be 0.0552 µM.

Turning to `CCN(CC)CCCOc1ccc2c(c1)c(C1=C(c3cc(F)cc4ccoc34)C(=O)NC1=O)cn2C(C)C` [Example 114, 3-(5-Fluorobenzofur-7-yl)-4-[5-(3-diethylaminopropoxy)-1-isopropyl-1H-indol-3-yl]pyrrole-2,5-dione hydrochloride], the IC50 in test [3] (setting [5]) was 0.133 µM.

In the case of `O=C1NC(=O)C(c2cccc3ccoc23)=C1c1cn(C2CCNCC2)c2ccccc12` [Example 139, 3-(Benzofur-7-yl)-4-[1-(piperidin-4-yl)-1H-indol-3-yl]pyrrole-2,5-dione], the IC50 in test [3] (setting [5]) was 0.00574 µM.

Take `CCN(CC)CCCc1cccc2c(C3=C(c4cccc5ccoc45)C(=O)NC3=O)cn(C)c12` [Example 102, 3-(Benzofur-7-yl)-4-[7-(3-diethylaminopropyl)-1-methyl-1H-indol-3-yl]pyrrole-2,5-dione]: in test [3] (setting [5]), the IC50 is 0.125 µM.

With `COc1ccc(C2=C(c3cn(CCCCN(C)C)c4ccccc34)C(=O)NC2=O)c2occc12` [Example 118], in test [3] (setting [5]), the concentration for half-maximal inhibition (IC50) came out at 0.0702 µM.
